For 13 compounds, IC50 results are on record in ChEMBL document CHEMBL1136624, “Synthesis and anticancer effect of chrysin derivatives” (Bioorg Med Chem Lett, 2003).

One experiment relates to HT-29. In words: In vitro inhibitory concentration required against human colorectal adenocarcinoma HT-29 cell line. Type of experiment: functional, cell-based.
Another experiment relates to SGC-7901. In words: In vitro inhibitory concentration required against human gastric adenocarcinoma SGC-7901 cell line. It is filed as functional, cell-based.

Broadly, the IC50 is the point on the concentration scale where inhibition reaches its midpoint.

On to `COc1cc(O)c2c(=O)cc(-c3ccccc3)oc2c1Br`, for which the figures for the IC50 with HT-29 and in the experiment on SGC-7901 were 1900 nM and 2500 nM, respectively. `COc1cc(OC)c2c(=O)cc(-c3ccccc3)oc2c1C(F)(F)F`: the figures for the half-maximal inhibitory concentration (IC50) in the experiment with HT-29 and in the experiment with SGC-7901 were 2300 nM and 5900 nM, respectively. With `CC(=O)Oc1c(I)c(O)c2c(=O)cc(-c3ccccc3)oc2c1I`, the IC50 with HT-29 was found to be 3000 nM; with SGC-7901 it was 4200 nM. In the experiment with HT-29, `CC(=O)Oc1c(C(F)(F)F)c(O)c2c(=O)cc(-c3ccccc3)oc2c1C(F)(F)F` yielded an IC50 of 2900 nM. This lies in the single-digit micromolar range. With `O=c1cc(-c2ccccc2)oc2c(I)c(O)c(I)c(O)c12`, the IC50 with HT-29 is 4400 nM; in the experiment on SGC-7901, 2900 nM. The like results for `COc1cc(OC)c2c(=O)cc(-c3ccccc3)oc2c1I` were, in that order, 2600 nM and 2200 nM. The like results for `O=c1cc(-c2ccccc2)oc2c([N+](=O)[O-])c(O)cc(O)c12` were, in that order, 2300 nM and 2800 nM. The like results for `CC(=O)Oc1cc(O)c2c(=O)cc(-c3ccccc3)oc2c1` were, in that order, 3800 nM and 3600 nM. `COc1c([N+](=O)[O-])c(O)c2c(=O)cc(-c3ccccc3)oc2c1I`: the values for the IC50 in the experiment with HT-29 and with SGC-7901 were 2300 nM and 6400 nM, respectively. The like results for `O=c1cc(-c2ccccc2)oc2c(Br)c(O)c(Br)c(O)c12` were, in that order, 4000 nM and 5100 nM. The like results for `CC(=O)Oc1cc(OC(C)=O)c2c(=O)cc(-c3ccccc3)oc2c1` [CHRYSIN DIACETATE] were, in that order, 2600 nM and 4500 nM.

Take `COc1cc(OC)c2c(=O)cc(-c3ccccc3)oc2c1` [CHRYSIN DIMETHYL ETHER]: the values for the IC50 in the experiment with HT-29 and with SGC-7901 were 2000 nM and 3700 nM, respectively. The like results for `O=c1cc(-c2ccccc2)oc2cc(O)cc(O)c12` [CHRYSIN] were, in that order, 3100 nM and 5800 nM.
